Reference: ChEMBL document CHEMBL1201862, “PubChem BioAssay data set” (2004)
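Dose response: 5 concentrations. Exposure: 48 h. Format: 96-well plates. Endpoint: linear interpolation; highest concentration if not reached. Abbreviation: GI50, concentration required for 50% inhibition of growth.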 Activity calls are given as the source filed them. Cut-off read from the data, not from the text of the source: active = GI50 up to about 1.1 µM and inactive = higher.

Tests used:
Test in all cases: growth of human tumour cells (NCI), 48 h
Malme-3M = tested on: Malme-3M
A549 = tested on: A549
UACC-257 = tested on: UACC-257
SNB-19 = tested on: SNB-19
RXF 393 = tested on: RXF 393
UO-31 = tested on: UO-31
EKVX = tested on: EKVX
NCI/ADR-RES = tested on: NCI/ADR-RES
HCT-116 = tested on: HCT-116
HL-60 = tested on: HL-60
MDA-MB-231 = tested on: MDA-MB-231
NCI-H460 = tested on: NCI-H460
KM12 = tested on: KM12
OVCAR-4 = tested on: OVCAR-4
COLO 205 = tested on: COLO 205
IGROV-1 = tested on: IGROV-1
CCRF-CEM = tested on: CCRF-CEM
OVCAR-3 = tested on: OVCAR-3
NCI-H522 = tested on: NCI-H522
DU-145 = tested on: DU-145

Measured: GI50

Cc1cccc(/N=N/c2ccc(/N=N/c3c(O)ccc4ccccc34)cc2C)c1
inactive: Malme-3M 2 µM | A549 80 µM | UACC-257 > 100 µM | SNB-19 38.2 µM | RXF 393 27 µM | UO-31 > 100 µM | EKVX 84.7 µM | NCI/ADR-RES 13.4 µM | HCT-116 > 100 µM | HL-60 33.5 µM | MDA-MB-231 > 100 µM | NCI-H460 > 100 µM | KM12 > 100 µM | OVCAR-4 > 100 µM | COLO 205 > 100 µM | IGROV-1 > 100 µM | CCRF-CEM > 100 µM | OVCAR-3 > 100 µM | NCI-H522 14.2 µM

c1ccc(C[N+]23C(CC[C@H]2c2ccccc2)CC[C@H]3c2ccccc2)cc1 (some centres undefined)
inactive: Malme-3M 18.2 µM | A549 36.6 µM | UACC-257 6.24 µM | SNB-19 29.5 µM | RXF 393 18.3 µM | UO-31 > 100 µM | EKVX 24 µM | HCT-116 28.8 µM | HL-60 11.2 µM | DU-145 32.9 µM | MDA-MB-231 34.9 µM | KM12 21.8 µM | OVCAR-4 31 µM | COLO 205 11.2 µM | IGROV-1 21.6 µM | CCRF-CEM 27.4 µM | OVCAR-3 14.3 µM | NCI-H522 18 µM

COc1ccc2[nH]c3c(c2c1)CCn1c-3nc2ccccc2c1=O
inactive: A549 > 25 µM | UACC-257 > 25 µM | SNB-19 > 25 µM | UO-31 > 25 µM | EKVX > 25 µM | NCI/ADR-RES > 25 µM | HCT-116 > 25 µM | HL-60 > 25 µM | MDA-MB-231 > 25 µM | NCI-H460 > 25 µM | KM12 > 25 µM | OVCAR-4 > 25 µM | COLO 205 > 25 µM | IGROV-1 > 25 µM | CCRF-CEM > 25 µM | NCI-H522 > 25 µM

O=C(O)c1ccc(/N=C(\C(=N\c2ccc(C(=O)O)cc2)c2ccccc2)c2ccccc2)cc1
inactive: A549 > 100 µM | UACC-257 > 100 µM | SNB-19 > 100 µM | RXF 393 > 100 µM | UO-31 > 100 µM | EKVX > 100 µM | NCI/ADR-RES > 100 µM | HCT-116 > 100 µM | DU-145 > 100 µM | MDA-MB-231 > 100 µM | NCI-H460 > 100 µM | KM12 > 100 µM | OVCAR-4 > 100 µM | COLO 205 > 100 µM | IGROV-1 > 100 µM | OVCAR-3 > 100 µM
